Results from patent publication US7342027B2 (Yuhan Corporation, priority 2002, dated 2008).

molecular target: T1, Recombinant human cathepsin K (Homo sapiens, UniProt P43235); assay: Inhibition of cathepsin K activity (Z-Phe-Arg-AMC fluorescence assay); type: biochemical; settings: 25 uM Z-Phe-Arg-AMC, pH 5.5, 1 hour at 37° C.
T1 construct: made in house
T1 sequence (P43235 115-329): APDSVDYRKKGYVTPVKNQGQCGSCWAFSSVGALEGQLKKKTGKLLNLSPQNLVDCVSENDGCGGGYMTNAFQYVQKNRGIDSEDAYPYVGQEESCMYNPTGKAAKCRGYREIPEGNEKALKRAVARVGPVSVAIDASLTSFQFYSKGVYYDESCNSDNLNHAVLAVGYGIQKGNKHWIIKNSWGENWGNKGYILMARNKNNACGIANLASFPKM
Description: Test 1: Inhibition of Cathepsin K Activity
Recombinant human cathepsin K was prepared in accordance with Biol, Pharm. Bull, 19(8), 1026-1031 (1996) and J. Biol. Chem. 271, 2126-2132 (1996). Stock solutions of 2.5 mM Z-Phe-Arg-AMC (BACHEM, 1-1160) and all inhibitors were prepared in dimethyl sulfoxide. In vitro assays for cathepsin K were conducted with 25 uM Z-Phe-Arg-AMC as a substrate at pH 5.5 in 100 mM Na acetate buffer containing 20 mM cysteine and 5 mM EDTA in the presence of 2% final concentration of DMSO. Reaction was initiated by the addition of enzyme to samples, which were then incubated for 1 hour at 37° C. The fluorescence was monitored at 460 nm (excitation wavelength 360 nm) using fluorescence plate reader.
The concentrations of the test compounds, which inhibit 50% of cathepsin K activity, are represented as IC50 in Table 1.

In order of falling IC50:
1. O=C(NC1(C(=O)NC2CCN(c3ccccc3N3CCOCC3)CC2=O)CCCCC1)c1cc2ccccc2o1 (stereo not drawn) [Example 26, 4-[N-[1-[N-(benzofuran-2-ylcarbonyl)amino]cyclohexanecarbonyl]amino]-1-[2-(4-morpholino)phenyl]piperidin-3-one]  19.9 nM
2. O=C(NC1(C(=O)NC2CCN(c3ccc([N+](=O)[O-])cc3)CC2=O)CCCCC1)c1cc2ccccc2o1 (stereo not drawn) [Example 16, 4-[N-[1-[N-(benzofuran-2-ylcarbonyl)amino]cyclohexanecarbonyl]amino]-1-(4-nitrophenyl)piperidin-3-one]  10.8 nM
3. N#Cc1c(F)cccc1N1CCC(NC(=O)C2(NC(=O)c3cc4ccccc4o3)CCCCC2)C(=O)C1 (stereo not drawn) [Example 8, 4-[N-[1-[N-(benzofuran-2-ylcarbonyl)amino]cyclohexanecarbonyl]amino]-1-(2-cyano-3-fluorophenyl)piperidin-3-one]  10.4 nM
4. CCOc1ccccc1N1CCC(NC(=O)C2(NC(=O)c3cc4ccccc4o3)CCCCC2)C(=O)C1 (stereo not drawn) [Example 27, 4-[N-[1-[N-(benzofuran-2-ylcarbonyl)amino]cyclohexanecarbonyl]amino]-1-(2-ethoxyphenyl)piperidin-3-one]  8.07 nM
5. CC(C)Oc1ccccc1N1CCC(NC(=O)C2(NC(=O)c3cc4ccccc4o3)CCCCC2)C(=O)C1 (stereo not drawn) [Example 41, 4-[N-[1-[N-(benzofuran-2-ylcarbonyl)amino]cyclohexanecarbonyl]amino]-1-(2-isopropoxyphenyl)piperidin-3-one]  7.73 nM
6. O=C(NC1(C(=O)NC2CCN(c3ccccc3N3CCCCC3=O)CC2=O)CCCCC1)c1cc2ccccc2o1 (stereo not drawn) [Example 45, 4-[N-[1-[N-(benzofuran-2-ylcarbonyl)amino]cyclohexanecarbonyl]amino]-1-[2-(piperidin-2-one-1-yl)phenyl]piperidin-3-one]  6.8 nM
7. N#Cc1ccc(N2CCC(NC(=O)C3(NC(=O)c4cc5ccccc5o4)CCCCC3)C(=O)C2)cc1 (stereo not drawn) [Example 7, 4-[N-[1-[N-(benzofuran-2-ylcarbonyl)amino]cyclohexanecarbonyl]amino]-1-(4-cyanophenyl)piperidin-3-one]  6.24 nM
8. O=C(CCc1ccccc1)Nc1ccccc1N1CCC(NC(=O)C2(NC(=O)c3cc4ccccc4o3)CCCCC2)C(=O)C1 (stereo not drawn) [Example 54, 4-[N-[1-[N-(benzofuran-2-ylcarbonyl)amino]cyclohexanecarbonyl]amino]-1-[2-[N-(3-phenylpropionyl)amino]phenyl]piperidin-3-one]  6.09 nM
9. CS(=O)(=O)c1c(F)cccc1N1CCC(NC(=O)C2(NC(=O)c3ccco3)CCCCC2)C(=O)C1 (stereo not drawn) [Example 77, 4-[N-[1-[N-(furan-2-ylcarbonyl)amino]cyclohexanecarbonyl]amino]-1-(3-fluoro-2-methylsulfonylphenyl)piperidin-3-one]  5.97 nM
10. CS(=O)(=O)c1ccc(N2CCC(NC(=O)C3(NC(=O)c4cc5ccccc5o4)CCCCC3)C(=O)C2)cc1 (stereo not drawn) [Example 5, 4-[N-[1-[N-(benzofuran-2-ylcarbonyl)amino]cyclohexanecarbonyl]amino]-1-(4-methanesulfonylphenyl)piperidin-3-one]  5.05 nM
11. CC1(C)CN(c2ccccc2N2CCC(NC(=O)C3(NC(=O)c4cc5ccccc5o4)CCCCC3)C(=O)C2)C1=O (stereo not drawn) [Example 43, 4-[N-[1-[N-(benzofuran-2-ylcarbonyl)amino]cyclohexanecarbonyl]amino]-1-[2-(3,3-dimethylazetidin-2-one-1-yl)phenyl]piperidin-3-one]  4.97 nM
12. O=C(NC1(C(=O)NC2CCN(c3ccccc3-n3cnnn3)CC2=O)CCCCC1)c1cc2ccccc2o1 (stereo not drawn) [Example 58, 4-[N-[1-[N-(benzofuran-2-ylcarbonyl)amino]cyclohexanecarbonyl]amino]-1-[2-(tetrazol-1-yl)phenyl]piperidin-3-one]  4.82 nM
13. O=C(NC1(C(=O)NC2CCN(c3ccccc3-c3nnn[nH]3)CC2=O)CCCCC1)c1cc2ccccc2o1 (stereo not drawn) [Example 67, 4-[N-[1-[N-(benzofuran-2-ylcarbonyl)amino]cyclohexanecarbonyl]amino]-1-[2-(1H-tetrazol-5-yl)phenyl]piperidin-3-one]  4.77 nM
14. O=Cc1c(Cl)cccc1N1CCC(NC(=O)C2(NC(=O)c3cc4ccccc4o3)CCCCC2)C(=O)C1 (stereo not drawn) [Example 19, 4-[N-[1-[N-(benzofuran-2-ylcarbonyl)amino]cyclohexanecarbonyl]amino]-1-(3-chloro-2-formylphenyl)piperidin-3-one]  4.41 nM
15. CC(C)C(=O)Nc1ccccc1N1CCC(NC(=O)C2(NC(=O)c3cc4ccccc4o3)CCCCC2)C(=O)C1 (stereo not drawn) [Example 51, 4-[N-[1-[N-(benzofuran-2-ylcarbonyl)amino]cyclohexanecarbonyl]amino]-1-[2-[N-(isobutyryl)amino]phenyl]piperidin-3-one]  4.11 nM
16. CCSc1ccccc1N1CCC(NC(=O)C2(NC(=O)c3cc4ccccc4o3)CCCCC2)C(=O)C1 (stereo not drawn) [Example 42, 4-[N-[1-[N-(benzofuran-2-ylcarbonyl)amino]cyclohexanecarbonyl]amino]-1-(2-ethylthiophenyl)piperidin-3-one]  3.87 nM
17. CC(C)(C)OC(=O)c1ccccc1N1CCC(NC(=O)C2(NC(=O)c3cc4ccccc4o3)CCCCC2)C(=O)C1 (stereo not drawn) [Example 37, 4-[N-[1-[N-(benzofuran-2-ylcarbonyl)amino]cyclohexanecarbonyl]amino]-1-[2-(tert-butoxycarbonyl)phenyl]piperidin-3-one]  3.78 nM
18. C[S+]([O-])c1ccccc1N1CCC(NC(=O)C2(NC(=O)c3cc4ccccc4o3)CCCCC2)C(=O)C1 (stereo not drawn) [Example 68]  3.12 nM
19. CC(=O)c1ccccc1N1CCC(NC(=O)C2(NC(=O)c3cc4ccccc4o3)CCCCC2)C(=O)C1 (stereo not drawn) [Example 6, 4-[N-[1-[N-(benzofuran-2-ylcarbonyl)amino]cyclohexanecarbonyl]amino]-1-(2-acetylphenyl)piperidin-3-one]  2.69 nM
20. O=C(NC1(C(=O)NC2CCN(c3ccccc3Br)CC2=O)CCCCC1)c1cc2ccccc2o1 (stereo not drawn) [Example 35, 4-[N-[1-[N-(benzofuran-2-ylcarbonyl)amino]cyclohexanecarbonyl]amino]-1-(2-bromophenyl)piperidin-3-one]  2.35 nM
21. CSc1ccccc1N1CCC(NC(=O)C2(NC(=O)c3cc4ccccc4o3)CCCCC2)C(=O)C1 (stereo not drawn) [Example 36, 4-[N-[1-[N-(benzofuran-2-ylcarbonyl)amino]cyclohexanecarbonyl]amino]-1-(2-methylthiophenyl)piperidin-3-one]  2.13 nM
22. O=C(NC1(C(=O)NC2CCN(c3ccccc3-c3ccco3)CC2=O)CCCCC1)c1cc2ccccc2o1 (stereo not drawn) [Example 34, 4-[N-[1-[N-(benzofuran-2-ylcarbonyl)amino]cyclohexanecarbonyl]amino]-1-[2-(2-furyl)phenyl]piperidin-3-one]  1.93 nM
23. CC(C)[S+]([O-])c1ccccc1N1CCC(NC(=O)C2(NC(=O)c3cc4ccccc4o3)CCCCC2)C(=O)C1 (stereo not drawn) [Example 70, 4-[N-[1-[N-(benzofuran-2-ylcarbonyl)amino]cyclohexanecarbonyl]amino]-1-(2-isopropylsulfinylphenyl)piperidin-3-one]  1.73 nM
24. CC(=O)Nc1ccccc1N1CCC(NC(=O)C2(NC(=O)c3cc4ccccc4o3)CCCCC2)C(=O)C1 (stereo not drawn) [Example 56, 4-[N-[1-[N-(benzofuran-2-ylcarbonyl)amino]cyclohexanecarbonyl]amino]-1-[2-[N-(acetyl)amino]phenyl]piperidin-3-one]  1.62 nM
25. CC[S+]([O-])c1ccccc1N1CCC(NC(=O)C2(NC(=O)c3cc4ccccc4o3)CCCCC2)C(=O)C1 (stereo not drawn) [Example 69]  1.59 nM
26. O=Cc1ccccc1N1CCC(NC(=O)C2(NC(=O)c3cc4ccccc4o3)CCCCC2)C(=O)C1 (stereo not drawn) [Example 15, 4-[N-[1-[N-(benzofuran-2-ylcarbonyl)amino]cyclohexanecarbonyl]amino]-1-(2-formylphenyl)piperidin-3-one]  1.45 nM
27. O=C(NC1(C(=O)NC2CCN(c3ccccc3NC(=O)C3CC3)CC2=O)CCCCC1)c1cc2ccccc2o1 (stereo not drawn) [Example 53, 4-[N-[1-[N-(benzofuran-2-ylcarbonyl)amino]cyclohexanecarbonyl]amino]-1-[2-[N-(cyclopropanecarbonyl)amino]phenyl]piperidin-3-one]  1.22 nM
28. O=C(CCCCl)Nc1ccccc1N1CCC(NC(=O)C2(NC(=O)c3cc4ccccc4o3)CCCCC2)C(=O)C1 (stereo not drawn) [Example 50, 4-[N-[1-[N-(benzofuran-2-ylcarbonyl)amino]cyclohexanecarbonyl]amino]-1-[2-[N-(4-chlorobutyryl)amino]phenyl]piperidin-3-one]  1.2 nM
29. CCOC(=O)Nc1ccccc1N1CCC(NC(=O)C2(NC(=O)c3cc4ccccc4o3)CCCCC2)C(=O)C1 (stereo not drawn) [Example 48, 4-[N-[1-[N-(benzofuran-2-ylcarbonyl)amino]cyclohexanecarbonyl]amino]-1-[2-[N-(ethoxycarbonyl)amino]phenyl]piperidin-3-one]  0.67 nM
30. COC(=O)Nc1ccccc1N1CCC(NC(=O)C2(NC(=O)c3cc4ccccc4o3)CCCCC2)C(=O)C1 (stereo not drawn) [Example 49, 4-[N-[1-[N-(benzofuran-2-ylcarbonyl)amino]cyclohexanecarbonyl]amino]-1-[2-[N-(methoxycarbonyl)amino]phenyl]piperidin-3-one]  0.45 nM
